According to patent US9856254B2, “Alkoxy substituted imidazoquinolines” (3M INNOVATIVE PROPERTIES COMPANY, priority 2003, dated 2018):

SMILES | melting point
CCOCc1nc2c(N)nc3cc(OCCCN4CCCC4=O)ccc3c2n1CCCCNS(C)(=O)=O [Example 400, N-(4-{4-Amino-2-(ethoxymethyl)-7-[3-(2-oxopyrrolidin-1-yl)propoxy]-1H-imidazo[4,5-c]quinolin-1-yl}butyl)methanesulfonamide] | 157 °C
CCOCc1nc2c(N)nc3cc(OC4CCOC4)ccc3c2n1CCCCN1CCCS1(=O)=O (centres unmarked) [Example 401, 1-[4-(1,1-Dioxidoisothiazolidin-2-yl)butyl]-2-(ethoxymethyl)-7-(tetrahydrofuran-3-yloxy)-1H-imidazo[4,5-c]quinolin-4-amine] | 195.5 to 197 °C
CCOCc1nc2c(N)nc3cc(OCCCN4CCCC4=O)ccc3c2n1CCCCN1CCCS1(=O)=O [Example 402, 1-(3-{[4-Amino-1-[4-(1,1-dioxidoisothiazolidin-2-yl)butyl]-2-(ethoxymethyl)-1H-imidazo[4,5-c]quinolin-7-yl]oxy}propyl)pyrrolidin-2-one] | 142 to 144 °C
Cc1nc2c(N)nc3cc(OCCC4CCN(C(=O)NC5CCCCC5)CC4)ccc3c2n1CC(C)C [Example 403, 4-{2-[(4-Amino-1-isobutyl-2-methyl-1H-imidazo[4,5-c]quinolin-7-yl)oxy]ethyl}-N-cyclohexylpiperidine-1-carboxamide] | 213.7 to 215.7 °C
CCCn1c(COCC)nc2c(N)nc3ccc(OCC(=O)N4CCN(C(=O)OC(C)(C)C)CC4)cc3c21 [Example 404, tert-Butyl 4-({[4-amino-2-(ethoxymethyl)-1-propyl-1H-imidazo[4,5-c]quinolin-8-yl]oxy}acetyl)piperazine-1-carboxylate] | 192 to 197 °C (dec.)
CCCn1c(COCC)nc2c(N)nc3ccc(OCCCN4CCCC4=O)cc3c21 [Example 405, 1-(3-{[4-Amino-2-(ethoxymethyl)-1-propyl-1H-imidazo[4,5-c]quinolin-8-yl]oxy}propyl)pyrrolidin-2-one] | 188.5 to 190 °C
CCCn1c(COCC)nc2c(N)nc3ccc(OC4CCOC4)cc3c21 (centres unmarked) [Example 406, 2-(Ethoxymethyl)-1-propyl-8-(tetrahydrofuran-3-yloxy)-1H-imidazo[4,5-c]quinolin-4-amine] | 173 to 175 °C
CCCn1c(COCC)nc2c(N)nc3ccc(OCCCCCCNC(=O)C(C)C)cc3c21 [Example 407, N-(6-{[4-Amino-2-(ethoxymethyl)-1-propyl-1H-imidazo[4,5-c]quinolin-8-yl]oxy}hexyl)-2-methylpropanamide] | 136 to 138 °C
CCCn1c(COCC)nc2c(N)nc3ccc(OCCCCCCNC(=O)NC(C)C)cc3c21 [Example 408, N-(6-{[4-Amino-2-(ethoxymethyl)-1-propyl-1H-imidazo[4,5-c]quinolin-8-yl]oxy}hexyl)-N′-isopropylurea] | 167 to 169 °C
CCCn1c(COCC)nc2c(N)nc3ccc(OCCCCCCNS(C)(=O)=O)cc3c21 [Example 409, N-(6-{[4-Amino-2-(ethoxymethyl)-1-propyl-1H-imidazo[4,5-c]quinolin-8-yl]oxy}hexyl)methanesulfonamide] | 164 to 167 °C
CCCn1c(COCC)nc2c(N)nc3ccc(OC4CCN(C(=O)OC(C)(C)C)CC4)cc3c21 [Example 410, tert-Butyl 4-{[4-amino-2-(ethoxymethyl)-1-propyl-1H-imidazo[4,5-c]quinolin-8-yl]oxy}piperidine-1-carboxylate] | 179.5 to 181 °C
CCCn1c(COCC)nc2c(N)nc3ccc(OC4CCNCC4)cc3c21 [Example 411, 2-(Ethoxymethyl)-8-(piperidin-4-yloxy)-1-propyl-1H-imidazo[4,5-c]quinolin-4-amine] | 176 to 178 °C
CCCn1c(COCC)nc2c(N)nc3ccc(OC4CCN(C(=O)NC(C)C)CC4)cc3c21 [Example 412, 4-{[4-Amino-2-(ethoxymethyl)-1-propyl-1H-imidazo[4,5-c]quinolin-8-yl]oxy}-N-isopropylpiperidine-1-carboxamide] | 236.5 to 239 °C
CCCn1c(COCC)nc2c(N)nc3ccc(OC4CCN(S(C)(=O)=O)CC4)cc3c21 [Example 413, 2-(Ethoxymethyl)-8-{[1-(methylsulfonyl)piperidin-4-yl]oxy}-1-propyl-1H-imidazo[4,5-c]quinolin-4-amine] | 240 to 243.5 °C
CCCn1c(COCC)nc2c(N)nc3ccc(OC4CCN(C(=O)C(C)C)CC4)cc3c21 [Example 414, 2-(Ethoxymethyl)-8-[(1-isobutyrylpiperidin-4-yl)oxy]-1-propyl-1H-imidazo[4,5-c]quinolin-4-amine] | 177 to 179 °C
CCCn1c(COCC)nc2c(N)nc3cc(OC4CCN(C(=O)OC(C)(C)C)CC4)ccc3c21 [Example 415, tert-Butyl 4-{[4-amino-2-(ethoxymethyl)-1-propyl-1H-imidazo[4,5-c]quinolin-7-yl]oxy}piperidine-1-carboxylate] | 194 to 195 °C
CCCn1c(COCC)nc2c(N)nc3cc(OC4CCNCC4)ccc3c21 [Example 416, 2-(Ethoxymethyl)-7-(piperidin-4-yloxy)-1-propyl-1H-imidazo[4,5-c]quinolin-4-amine] | 202 to 204 °C
CCCn1c(COCC)nc2c(N)nc3cc(OC4CCN(C(=O)NC(C)C)CC4)ccc3c21 [Example 417, 4-{[4-Amino-2-(ethoxymethyl)-1-propyl-1H-imidazo[4,5-c]quinolin-7-yl]oxy}-N-isopropylpiperidine-1-carboxamide] | 163 to 164.5 °C

SMILES | melting point
CCc1nc2c(N)nc3cc(OCCNC(=O)OC(C)(C)C)ccc3c2n1CC1CCOCC1 [Example 551, tert-Butyl 2-{[4-amino-2-ethyl-1-(tetrahydro-2H-pyran-4-ylmethyl)-1H-imidazo[4,5-c]quinolin-7-yl]oxy}ethylcarbamate] | 200 to 201 °C
CCc1nc2c(N)nc3cc(OCC(=O)N4CCOCC4)ccc3c2n1CC1CCOCC1 [Example 553, 2-Ethyl-7-(2-morpholin-4-yl-2-oxoethoxy)-1-(tetrahydro-2H-pyran-4-ylmethyl)-1H-imidazo[4,5-c]quinolin-4-amine] | 245 to 247 °C
CCCn1c(COC)nc2c(N)nc3ccc(OCCCN4CCOCC4)cc3c21 [Example 554, 2-Methoxymethyl-8-(3-morpholin-4-ylpropoxy)-1-propyl-1H-imidazo[4,5-c]quinolin-4-amine] | 193 to 196 °C
CCCn1c(COC)nc2c(N)nc3ccc(OCCCOC(=O)N4CCOCC4)cc3c21 [Example 555, 3-{[4-Amino-2-(methoxymethyl)-1-propyl-1H-imidazo[4,5-c]quinolin-8-yl]oxy}propyl morpholine-4-carboxylate] | 173 to 174 °C
CCCn1c(COC)nc2c(N)nc3ccc(OCC(=O)N4CCSCC4)cc3c21 [Example 556, 2-(Methoxymethyl)-8-(2-oxo-2-thiomorpholin-4-ylethoxy)-1-propyl-1H-imidazo[4,5-c]quinolin-4-amine] | 214 to 216 °C
CCCn1c(COC)nc2c(N)nc3ccc(OCC(=O)N4CCOCC4)cc3c21 [Example 557, 2-(Methoxymethyl)-8-(2-morpholin-4-yl-2-oxoethoxy)-1-propyl-1H-imidazo[4,5-c]quinolin-4-amine] | 201 to 204 °C
CCCn1c(COC)nc2c(N)nc3ccc(OCC4CCCN(C)C4)cc3c21 (centres unmarked) [Example 558, 2-Methoxymethyl-8-(1-methylpiperidin-3-ylmethoxy)-1-propyl-1H-imidazo[4,5-c]quinolin-4-amine] | 194 to 196 °C
CCCn1c(COC)nc2c(N)nc3ccc(OCCN4CCCCC4)cc3c21 [Example 559, 2-Methoxymethyl-8-(2-piperidin-1-ylethoxy)-1-propyl-1H-imidazo[4,5-c]quinolin-4-amine] | 160 to 162 °C
CCCn1c(COCC)nc2c(N)nc3cc(OC4CCN(C(C)=O)CC4)ccc3c21 [Example 560, 7-[(1-Acetylpiperidin-4-yl)oxy]-2-(ethoxymethyl)-1-propyl-1H-imidazo[4,5-c]quinolin-4-amine] | 178 to 179.5 °C
CCCn1c(COCC)nc2c(N)nc3cc(OC4CCN(S(C)(=O)=O)CC4)ccc3c21 [Example 561, 2-(Ethoxymethyl)-7-{[1-(methylsulfonyl)piperidin-4-yl]oxy}-1-propyl-1H-imidazo[4,5-c]quinolin-4-amine] | 215 to 217 °C
CCOCc1nc2c(N)nc3cc(OC4CCN(C(=O)OC(C)(C)C)CC4)ccc3c2n1CC(C)(C)O [Example 563, tert-Butyl 4-{[4-amino-2-(ethoxymethyl)-1-(2-hydroxy-2-methylpropyl)-1H-imidazo[4,5-c]quinolin-7-yl]oxy}piperidine-1-carboxylate] | 214 to 215 °C (dec.)
COCCc1nc2c(N)nc3cc(OCC4OCCO4)ccc3c2n1CC(C)(C)O [Example 564, 1-[4-Amino-7-(1,3-dioxolan-2-ylmethoxy)-2-(2-methoxyethyl)-1H-imidazo[4,5-c]quinolin-1-yl]-2-methylpropan-2-ol] | 131 to 136 °C
CCCn1c(COCC)nc2c(N)nc3ccc(OCC(=O)N4CCS(=O)(=O)CC4)cc3c21 [Example 565, 8-[2-(1,1-Dioxidothiomorpholin-4-yl)-2-oxoethoxy]-2-(ethoxymethyl)-1-propyl-1H-imidazo[4,5-c]quinolin-4-amine] | 223 to 225 °C
CCCn1c(COCC)nc2c(N)nc3ccc(OCC(=O)N4CCOCC4)cc3c21 [Example 566, 2-(Ethoxymethyl)-8-(2-morpholin-4-yl-2-oxoethoxy)-1-propyl-1H-imidazo[4,5-c]quinolin-4-amine] | 196 to 197 °C
CCCn1c(COC)nc2c(N)nc3ccc(OCCC4CCCN4C)cc3c21 (centres unmarked) [Example 567, 2-(Methoxymethyl)-8-[2-(1-methylpyrrolidin-2-yl)ethoxy]-1-propyl-1H-imidazo[4,5-c]quinolin-4-amine] | 155 to 157 °C
CCc1nc2c(N)nc3cc(OCCN4CCOCC4)ccc3c2n1CC1CCOCC1 [Example 568, 2-Ethyl-7-(2-morpholin-4-ylethoxy)-1-(tetrahydro-2H-pyran-4-ylmethyl)-1H-imidazo[4,5-c]quinolin-4-amine] | 230 to 232 °C
CCCn1c(COCC)nc2c(N)nc3ccc(OCC4CCCO4)cc3c21 (centres unmarked) [Example 569, 2-(Ethoxymethyl)-1-propyl-8-(tetrahydrofuran-2-ylmethoxy)-1H-imidazo[4,5-c]quinolin-4-amine] | 178 to 179 °C
